Source: publication PMC7192623, “Regulation of the RNA and DNA nuclease activities required for Pyrococcus furiosus Type III-B CRISPR–Cas immunity” (Nucleic Acids Research, 2020)

Key:
Pfu Csx1 [1] = target: T1, Pfu Csx1 (Pyrococcus furiosus, UniProt Q8U1S8); experiment: cleavage of radiolabelled Cmr-produced native cOA, sequencing gel; type: biochemical; details: HEPN active site; labelled compound; native cOA preparation (mainly cA4, also cA3), product presumed A2>p; 70 °C
T1 construct: gene PF1127; full-length, N-terminal 6x-His tag, modified pET24-D, expressed in E. coli BL21-RIPL (DE3)
T1 sequence (Q8U1S8 1-478): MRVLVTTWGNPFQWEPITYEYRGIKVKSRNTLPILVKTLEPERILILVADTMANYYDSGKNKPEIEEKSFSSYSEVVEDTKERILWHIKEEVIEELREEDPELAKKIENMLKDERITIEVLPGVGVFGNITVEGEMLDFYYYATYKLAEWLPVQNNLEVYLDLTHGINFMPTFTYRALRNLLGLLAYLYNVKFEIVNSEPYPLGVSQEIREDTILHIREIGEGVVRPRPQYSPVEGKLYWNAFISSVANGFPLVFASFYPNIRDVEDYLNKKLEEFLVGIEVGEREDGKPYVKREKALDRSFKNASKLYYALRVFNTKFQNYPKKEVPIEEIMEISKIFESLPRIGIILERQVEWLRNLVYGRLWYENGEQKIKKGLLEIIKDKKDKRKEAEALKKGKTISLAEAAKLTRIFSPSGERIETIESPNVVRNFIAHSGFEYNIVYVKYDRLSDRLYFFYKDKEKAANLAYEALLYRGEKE

Pfu Csx1 [2] = target: T1, Pfu Csx1; experiment: RNase activation assay, […]'-32P-labelled target RNA, urea-PAGE; type: biochemical; details: allosteric activator via CARF domain; synthetic cA4 at 1.85, 18.5 and 185 pM; 20 nM Csx1; 20 mM Tris-HCl pH 7.5, 200 mM NaCl, 70 °C

## Nc1ncnc2c1ncn2[C@@H]1O[C@@H]2COP(=O)(O)O[C@H]3[C@@H](O)[C@H](n4cnc5c(N)ncnc54)O[C@@H]3COP(=O)(O)O[C@H]3[C@@H](O)[C@H](n4cnc5c(N)ncnc54)O[C@@H]3COP(=O)(O)O[C@H]3[C@@H](O)[C@H](n4cnc5c(N)ncnc54)O[C@@H]3COP(=O)(O)O[C@H]2[C@H]1O [cA4]
Pfu Csx1 [1]
  cleavage of radiolabelled Cmr-produced native cOA, sequencing gel: also degrades its cognate cyclic-tetra-AMP (cA4) activator to switch off the signaling pathway
Pfu Csx1 [2]
  RNase activation assay, 5'-32P-labelled target RNA, urea-PAGE: cA4 but not cA6 stimulated the ribonuclease activity of Csx1
